Experimental data from patent publication US4791139A, “Diphenyl ether derivatives and their use as insecticides” (Imperial Chemical Industries PLC, priority 1986, dated 1988).

What was measured:
Format in all cases: in vivo
[1] = tested on: Musca domestica (houseflies - adults); test: Knockdown test, houseflies - adults (MD/KD), Cotton wool/sugar; conditions: 4 hours, read-out: MD/KD grading of knockdown
Summary of the method: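 Product was dissolved in acetone and diluted with water containing 0.1% wetting agent to 100–500 ppm. The flies and/or their food medium were treated with the preparation. Mortality was scored 1–7 days after treatment, with an additional knockdown assessment for houseflies.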

[2] = tested on: Diabrotica balteata (rootworm larvae); test: Residual test, rootworm larvae (DB), Filter paper/maize seed; conditions: 72 h, 3 days, read-out: DB grading of mortality
Summary of the method: (§1)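 Each pest was kept on its food plant or foodstuff and exposed, directly or via the medium, to 100 to 500 ppm Product in water containing 0.1% by weight wetting agent. Kill was recorded over one to seven days.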

[3] = tested on: Musca domestica (houseflies - adults); test: Contact test, houseflies - adults (MD), Cotton wool/sugar; conditions: 24 h, 1 day, read-out: MD grading of mortality
Summary of the method: as §1

[4] = tested on: Spodoptera exigua (lesser army worm - larvae); test: Residual test, lesser army worm - larvae (SP), Cotton leaf; conditions: 72 h, 250 ppm, 3 days, read-out: SP grading of mortality
Summary of the method: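 Compound dissolved in acetone and diluted in water with 0.1% Synperonic NX wetting agent to 100–500 ppm. Pests on host plant or food, with pests and/or medium treated. Mortality assessed 1–7 days after treatment and graded A (80–100%), B (50–79%) or C (<50%).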

[5] = tested on: Heliothis virescens (tobacco budworm - larvae); test: Residual test, tobacco budworm - larvae (HV), Cotton leaf; conditions: 72 h, read-out: HV grading of mortality
Summary of the method: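 Products applied as acetone solutions diluted in water with 0.1% wetting agent, at 100–500 ppm; pests on host plant or food, with pests and/or medium treated. Mortality or knockdown scored 1–7 days after treatment and graded A (80–100%), B (50–79%) or C (<50%).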

[6] = tested on: Blattella germanica (cockroach nymphs); test: Residual test, cockroach nymphs (BG), Plastic pot; conditions: 72 h, 3 days, read-out: BG grading of mortality
Summary of the method: as §1

Nephotettix cincticeps = test: Contact test, leaf hopper in place of Nilaparvata lugens (NL**), Rice plant; conditions: 72 h, 250 ppm, 3 days, read-out: NL** grading of mortality (Nephotettix cincticeps)
Method: (§2) The activity of the Product was determined using a variety of insect pests. The Product was used in the form of liquid preparations containing from 100 to 500 parts per million (ppm) by weight of the Product. The preparations were made by dissolving the Product in acetone and diluting the solutions with water containing 0.1% by weight of a wetting agent sold under the trade name "SYNPERONIC" NX until the liquid preparations contained the required concentration of the Product. "SYNPERONIC" is a Registered Trade Mark.
(§3) The test procedure adopted with regard to each pest was basically the same and comprised supporting a number of the pests on a medium which was usually a host plant or a foodstuff on which the pests feed, and treating either or both the pests and the medium with the preparations. The mortality of the pests was then assessed at periods usually varying from one to seven days after the treatment.
The results of the tests are given in Table III for each of the Products, at the rate in parts per million given in the second column as a grading of mortality designated as A, B or C wherein A indicates 80-100% mortality or knockdown (70-100% for Meloidogyne incognita), B indicates 50-79% mortality knockdown or knockdown (50-69% for Meloidogyne incognita) and C indicates less than 50% mortality or knockdown. […]

[7] = tested on: Tetranychus urticae (spider mites - adult); test: Contact test, spider mites - adult (TUa), French bean leaf; conditions: 72 h, 3 days, read-out: TUA grading of mortality
Summary of the method: as §1

Myzus persicae (aphids) = test: Contact test, aphids (MP), Chinese Cabbage leaf; conditions: 72 h, 3 days, read-out: MP grading of mortality
Summary of the method: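 Aphids on a host plant and/or the plant itself were treated with 100–500 ppm of product, applied from acetone diluted in water containing 0.1% SYNPERONIC NX wetting agent. Mortality was scored usually one to seven days after treatment.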

[8] = tested on: Nilaparvata lugens (brown plant hopper - nymphs); test: Contact test, brown plant hopper - nymphs (NL), Rice plant; conditions: 72 h, 3 days, read-out: NL grading of mortality
Summary of the method: as §1

[9] = tested on: Chilo partellus (Maize stemborer - larvae); test: Residual test, Maize stemborer - larvae (CP), Oilseed rape; conditions: 72 h, 3 days, read-out: CP grading of mortality
Method: as §2, §3
The results of the tests are given in Table III for each of the Products, at the rate in parts per million given in the second column as a grading of mortality designated as A, B or C wherein A indicates 80-100% mortality or knockdown (70-100% for Meloidogyne incognita), B indicates 50-79% mortality knockdown or knockdown (50-69% for Meloidogyne incognita) and C indicates less than 50% mortality or knockdown.
In Table III the pest organism used is designated by a letter code and the pests species, the support medium or food, and the type and duration of test is given in Table II.
(Maize stemborer - larvae)

[10] = tested on: Tetranychus urticae (spider mites - ova); test: Contact test, spider mites - ova (TUe), French bean leaf; conditions: 144 h, 6 days, read-out: TUE grading of mortality
Summary of the method: as §1

[11] = tested on: Meloidogyne incognita (Tomato root knot eelworm - larvae); test: Residual test, Tomato root knot eelworm - larvae (MI), Semi in-vitro; conditions: 168 h, application rate is half that recorded, 7 days, read-out: MI grading of mortality; for mortality at 125 µg/mL: rate 250 ppm

FC(F)(F)COc1ccc(C(CCCc2cccc(Oc3ccccc3)c2)C(F)(F)F)cc1 (racemic) [Compound 73, 1,1,1-trifluoro-2-[4-(2,2,2-trifluoroethoxy)phenyl]-5-(3-phenoxyphenyl)pentane]
80 to 100%: pest or weed control at 250 ppm [1] | mortality at 250 ppm [2] | mortality at 250 ppm [3] | mortality at 250 ppm [4] | mortality at 250 ppm [5] | mortality at 250 ppm [6] | mortality at 250 ppm (Nephotettix cincticeps) | mortality at 250 ppm [7] | mortality at 250 ppm (Myzus persicae (aphids))

FC(F)(F)Oc1ccc(C(=CCCc2cccc(Oc3ccccc3)c2)C(F)(F)F)cc1 [Compound 7, 5-(3-phenoxyphenyl)-2-(4-trifluoromethoxyphenyl)-1,1,1-trifluoropent-2-ene]
80 to 100%: mortality at 250 ppm [8] | mortality at 250 ppm [9] | mortality at 250 ppm [10] | mortality at 250 ppm [2] | mortality at 250 ppm [5] | mortality at 250 ppm [6] | mortality at 250 ppm [7] | mortality at 250 ppm (Myzus persicae (aphids))
50 to 79%: mortality at 250 ppm [3]
< 50%: pest or weed control at 250 ppm [1] | mortality at 125 µg/mL [11]

CCOc1ccc(C(=CCCc2cccc(Oc3ccccc3)c2)C(F)(F)C(F)(F)F)cc1 [Compound 10, 3-(4-ethoxyphenyl)-1,1,1,2,2-pentafluoro-6-(3-phenoxyphenyl)hex-3-ene]
< 50%: mortality at 250 ppm [8] | pest or weed control at 250 ppm [1] | mortality at 250 ppm [9] | mortality at 250 ppm [10] | mortality at 250 ppm [2] | mortality at 250 ppm [3] | mortality at 125 µg/mL [11] | mortality at 250 ppm [5] | mortality at 250 ppm [7] | mortality at 250 ppm (Myzus persicae (aphids))
50 to 79%: mortality at 250 ppm [6]

CCOc1ccc(/C(=C\C=Cc2ccc(F)c(Oc3ccccc3)c2)C(F)(F)F)cc1 [Compound 12, 1,1,1-trifluoro-2-(4-ethoxyphenyl)-5-(4-fluoro-3-phenoxyphenyl)penta-2,4-diene]
80 to 100%: mortality at 500 ppm ([8]; 500 ppm) | pest or weed control at 500 ppm ([1]; 500 ppm) | mortality at 500 ppm ([9]; 500 ppm) | mortality at 500 ppm ([2]; 500 ppm) | mortality at 500 ppm ([3]; 500 ppm) | mortality at 500 ppm [5] | mortality at 500 ppm ([6]; 500 ppm)
70 to 100%: mortality at 250 µg/mL ([11]; rate column 500 ppm)
< 50%: mortality at 500 ppm ([10]; 500 ppm) | mortality at 500 ppm ([7]; 500 ppm) | mortality at 500 ppm (Myzus persicae (aphids); 500 ppm)

FC(F)(F)C(=CCCc1cccc(Oc2ccccc2)c1)c1ccc(C(F)(F)F)cc1 [Compound 15, 5-(3-phenoxyphenyl)-1,1,1-trifluoro-2-(4-trifluoromethylphenyl)pent-2-ene]
< 50%: mortality at 250 ppm [8] | pest or weed control at 250 ppm [1] | mortality at 250 ppm [10] | mortality at 250 ppm [2] | mortality at 250 ppm [3] | mortality at 125 µg/mL [11] | mortality at 250 ppm (Myzus persicae (aphids))
80 to 100%: mortality at 250 ppm [9] | mortality at 250 ppm [5] | mortality at 250 ppm [6]
50 to 79%: mortality at 250 ppm [7]

CCOc1ccc(C(CC=Cc2cccc(Oc3ccccc3)c2)C(F)(F)F)cc1 (centres unmarked) [Compound 31, 1,1,1-trifluoro-2-(4-ethoxyphenyl)-5-(3-phenoxyphenyl)pent-4-ene]
80 to 100%: mortality at 250 ppm [8] | pest or weed control at 250 ppm [1] | mortality at 250 ppm [9] | mortality at 250 ppm [2] | mortality at 250 ppm [3] | mortality at 250 ppm [5] | mortality at 250 ppm [6] | mortality at 250 ppm (Myzus persicae (aphids))
< 50%: mortality at 250 ppm [10] | mortality at 125 µg/mL [11] | mortality at 250 ppm [7]

CCOc1ccc(C(CC=Cc2ccc(F)c(Oc3ccccc3)c2)C(F)(F)F)cc1 (centres unmarked) [Compound 32, 1,1,1-Trifluoro-2-(4-ethoxyphenyl)-5-(4-fluoro-3-phenoxyphenyl)pent-4-ene]
< 50%: mortality at 250 ppm [10] | mortality at 125 µg/mL [11]
50 to 79%: mortality at 250 ppm [7]
80 to 100%: mortality at 250 ppm [8] | pest or weed control at 250 ppm [1] | mortality at 250 ppm [9] | mortality at 250 ppm [2] | mortality at 250 ppm [3] | mortality at 250 ppm [5] | mortality at 250 ppm [6] | mortality at 250 ppm (Myzus persicae (aphids))

CCOc1ccc(C(C/C=C/c2cccc(Oc3ccccc3)c2)C(F)(F)F)cc1 (centres unmarked) [Compound 34, 1,1,1-trifluoro-2-(4-ethoxyphenyl)-5-(3-phenoxyphenyl)pent-4-ene]
80 to 100%: mortality at 250 ppm [9] | mortality at 250 ppm (Myzus persicae (aphids))
70 to 100%: mortality at 125 µg/mL [11]
< 50%: mortality at 250 ppm [8] | pest or weed control at 250 ppm [1] | mortality at 250 ppm [10] | mortality at 250 ppm [2] | mortality at 250 ppm [3] | mortality at 250 ppm [5] | mortality at 250 ppm [6] | mortality at 250 ppm [7]

CCOc1ccc(C(C/C=C\c2cccc(Oc3ccccc3)c2)C(F)(F)F)cc1 (centres unmarked) [Compound 35, 1,1,1-trifluoro-2-(4-ethoxyphenyl)-5-(3-phenoxyphenyl)pent-4-ene]
80 to 100%: mortality at 250 ppm [8] | pest or weed control at 250 ppm [1] | mortality at 250 ppm [9] | mortality at 250 ppm [2] | mortality at 250 ppm [3] | mortality at 250 ppm [5] | mortality at 250 ppm [6] | mortality at 250 ppm [7] | mortality at 250 ppm (Myzus persicae (aphids))
< 50%: mortality at 250 ppm [10] | mortality at 125 µg/mL [11]

CCOc1ccc(/C(=C\C=C\c2ccc(F)c(Oc3ccccc3)c2)C(F)(F)F)cc1 [Compound 36, 1,1,1-trifluoro-2-(4-ethoxyphenyl)-5-(4-fluoro-3-phenoxyphenyl)penta-2,4-diene]
80 to 100%: mortality at 250 ppm [8] | pest or weed control at 250 ppm [1] | mortality at 250 ppm [9] | mortality at 250 ppm [2] | mortality at 250 ppm [3] | mortality at 250 ppm [5] | mortality at 250 ppm [6] | mortality at 250 ppm (Myzus persicae (aphids))
< 50%: mortality at 250 ppm [10] | mortality at 250 ppm [7]
50 to 69%: mortality at 125 µg/mL [11]

CCOc1ccc(/C(=C\C=C/c2ccc(F)c(Oc3ccccc3)c2)C(F)(F)F)cc1 [Compound 37, 1,1,1-trifluoro-2-(4-ethoxyphenyl)-5-(4-fluoro-3-phenoxyphenyl)penta-2,4-diene]
50 to 79%: mortality at 250 ppm [6]
< 50%: mortality at 250 ppm [8] | pest or weed control at 250 ppm [1] | mortality at 250 ppm [9] | mortality at 250 ppm [10] | mortality at 250 ppm [2] | mortality at 250 ppm [3] | mortality at 125 µg/mL [11] | mortality at 250 ppm [5] | mortality at 250 ppm [7] | mortality at 250 ppm (Myzus persicae (aphids))
